Data published in US6727227B1, “Tetrapetide revealing geroprotective effect, pharmacological substance on its basis, and the method of its application” (Obschestvo S Ogranichennoi Otvetstven-Nostiju “Klinika …, priority 2002, dated 2004).
Residues, ends and D or L forms follow the SMILES beside them.

What was measured:
[1] = system: white outbred rats; assay: Subacute toxicity, 90 days; type: in vivo; settings: intramuscularly daily for 90 days, 1 μg/kg, 0.3 mg/kg, 3 mg/kg
Method: Experimental animals were exposed daily to a single administration of the drug intramuscularly for 90 days in doses 1 μg/kg, 0.3 mg/kg, 3 mg/kg in 0.5 ml of sodium chloride solution. Animals of the control group were administered with the same amount of sodium chloride.
Within the whole period of study the animals were under daily observation. Behaviour of the animals, their rations and water consumption, the state of hair integument and mucous membranes were registered. The animals were weighed weekly. Prior to and on the 30th, 60th, and 90th days of the drug administration the morphological composition and properties of the peripheral blood were examined. Upon the experiment completion biochemical and coagulologic indices of blood were investigated.

[2] = system: rats; assay: Chronic toxicity, 6 months; type: in vivo; settings: intramuscularly daily during 6 months, 1 μg/kg, 0.1 mg/kg, 1 mg/kg
Method: The animals were exposed daily to a single administration of the drug intramuscularly in doses 1 μg/kg, 0.1 mg/kg, 1 mg/kg in 0.5 ml of sodium chloride solution during 6 months. Behaviour of the animals, their rations and water consumption, the state of their hair integument and mucous membranes were registered. The animals were weighed daily during the first 3 months of the experiment and then once a month. Haematological and biochemical studies were carried out 3 months after the onset of drug administration and upon experiment completion. Functions of the cardiovascular system, liver, pancreas, kidneys, and adrenal glands were assessed. Upon the end of drug administration some animals were subjected to pathomorphological examination for the purpose of estimating the condition of various sections of the brain and spinal marrow, heart, aorta, lungs, liver, kidneys, organs of the endocrine and immune systems.

[3] = system: white outbred male mice; assay: Acute toxicity according to Kerber; type: in vivo
Method: The purpose of the study was to define tolerable toxic doses of the preparation, to estimate the stage and character of pathologic alterations in various organs and systems of the organism, and to identify the correlation between the toxic dose-related effect and the duration of the drug application.
The investigation was carried out on 66 white outbred male mice weighing 20 to 23 g, which were kept under standard regimen and fed upon standard rations in vivarium conditions. The animals were randomly divided into 6 equal groups of 11 mice in each. The animals were exposed to a single administration of the drug intramuscularly, 0.25 ml in doses 1 mg/kg, 2 mg/kg, 3 mg/kg, 4 mg/kg and 5 mg/kg (several thousand times exceeding the therapeutic dose recommended for clinical trial). Control animals were administered the same amount of sodium chloride.

[4] = system: catalase; assay: Catalase activity in 14-day old flies of HEM strain; type: in vivo, Drosophila melanogaster of HEM strain; settings: 0.00001% of culture medium weight
From the text: (§1) L-Ala-L-Glu-L-Asp-Gly tetrapeptide (SEQ ID NO: 1) was applied in Drosophila melanogaster larvae of the 2nd age of HEM strain selected for a high ageing rate (20). HEM strain is characterised by the unique dynamics of embryonic mortality, which consists in an increased frequency of early embryonic lethal outcomes from 65% on the 1st day of egg-laying up to 95% on the 4th day, in a reduced average life span (29 days), and in a raised intensity of lipid peroxide oxidation.
(§2) L-Ala-L-Glu-L-Asp-Gly tetrapeptide (SEQ ID NO: 1) was added in proportion 0.00001% of the culture medium weight, which was an extremely low dose. The doses described in literature on the influence of various substances on Drosophila melanogaster usually ranged from 0.001 to 0.01%.
(§3) Biochemical parameters were studied on 14-day old flies. Among them the activity of catalase activity and the intensity of tissue chemoluminescence were analysed (21, 22, 23). Catalase is the basic enzyme of anti-oxidation defence. […] Luminol-dependent chemoluminescence, induced by hydrogen peroxide, reflects the stage of active oxygen forms in tissues. Thus, a decrease in the chemoluminescence intensity indicates an increase in the organism ability to resist oxidative stress.

[5] = system: Drosophila melanogaster of HEM strain; assay: Luminol-dependent tissue chemoluminescence in flies of HEM strain; type: in vivo; settings: 0.00001% of culture medium weight
From the text: as §1, §2, §3

[6] = system: Drosophila melanogaster of HEM strain; assay: Reproductive function: share of live and fertile cultures, HEM strain; type: in vivo; parameters: key to Share of cultures, Live: % of initial test tubes containing live females; key to Share of cultures, Fertile: % of live cultures in which posterity was given; settings: for Share of cultures, Fertile / Share of cultures, Live: 0.00001% of medium weight
Method: Influence of L-Ala-L-Glu-L-Asp-Gly tetrapeptide (SEQ ID NO: 1) upon Drosophila melanogaster was tested at the stage of larvae of the 2nd-3rd age, by means of adding the preparation to culture medium in dose 0.00001% of the medium weight, which approximately made 0.015 mg/100 ml. The flies, hatched on the 1st day, were placed into test tubes, 5 couples in each, and transferred to fresh medium every 3 to 6 days.
There have been considered the following factors:
The share of the test tubes (of their initial amount), which contained live females (in Table 3—the share of live cultures).
The share of the test tubes (of the number of live cultures), in which posterity was given (in Table 3—the share of fertile cultures).
In each experimental variant 75 parental couples were analysed. The distinctions between fertility indices were defined by means of Fischer exact criterion for 2×2-adjustment tables (24).

[7] = single intramuscular administration, 1-5 mg/kg

## C[C@H](N)C(=O)N[C@@H](CCC(=O)O)C(=O)N[C@@H](CC(=O)O)C(=O)NCC(=O)O [L-Ala-L-Glu-L-Asp-Gly tetrapeptide, L-alanyl-L-glutamyl-L-aspartyl-glycine] (H-AEDG-OH)
[1]
  Side effects, subacute toxicity: absence of side effects
[2]
  Pathologic alterations (general state, blood indices, intrinsic organs, cardiovascular, respiratory, liver, kidney): no pathologic alterations
  Side effects, chronic toxicity: absence of side effects
[3]; doses several thousand times exceeding the therapeutic one
  Acute toxic reactions: does not induce acute toxic reactions
[3]; [7]
  Alterations in general state, behaviour, locomotor activity, hair and skin integument, physiological discharges: No alterations
  Deaths within 72 hours and in 14 days: none of the animals in either of the groups died
[4]; females
  Catalase activity: 98.8 ± 1.62 mmole H2O2/mg of protein per min.
[4]; males
  Catalase activity: 132.3 ± 3.68 mmole H2O2/mg of protein per min.
[5]; females
  Chemoluminescence: 7.9 ± 0.91 conv. unit/mg of protein
[5]; males
  Chemoluminescence: 2.03 ± 0.182 conv. unit/mg of protein
[6]; HEM strain
  Coefficient A of lineal regression, fertile culture share on age (y = B + Ax): −2.5 ± 0.37
  Coefficient A of lineal regression, live culture shares on age (y = B + Ax): −1.6 ± 0.17
  Coefficient B of lineal regression, fertile culture share on age (y = B + Ax): 115 ± 11.4
  Coefficient B of lineal regression, live culture shares on age (y = B + Ax): 137 ± 10.6
  Maximal life span attained: 100 days
  “a”-coefficient of fertile-share regression, control higher than experimental variant: 1.8 times
[6]; HEM strain, Table 6
  Average life span: 54 days
[6]; HEM strain, regression analysis
  Share of live cultures decreases faster than in controls: 1.5 times
[6]; HEM strain, versus control
  Extension of the reproduction period: 1.5 fold
[6]; HEM strain, 30 days for cultures not exposed
  Duration of the reproductive period: 47 days
[6]; day 0, HEM strain
  Share of cultures, Fertile: 100 + 0.8
[6]; day 6, HEM strain
  Share of cultures, Fertile: 100 + 0.8
[6]; day 10, HEM strain
  Share of cultures, Fertile: 93 ± 6.9
[6]; day 13, HEM strain
  Share of cultures, Fertile: 93 ± 6.9
[6]; day 19, HEM strain
  Share of cultures, Fertile: 86 ± 9.4
[6]; day 23, HEM strain
  Share of cultures, Fertile: 43 ± 13.2
[6]; day 27, HEM strain
  Share of cultures, Fertile: 31 ± 12.9
  Share of cultures, Live: 93 ± 6.9
[6]; day 32, HEM strain
  Share of cultures, Fertile: 36 ± 14.5
  Share of cultures, Live: 85 ± 10.0
[6]; day 38, HEM strain
  Share of cultures, Fertile: 9 ± 8.7
  Share of cultures, Live: 85 ± 10.0
[6]; day 44, HEM strain
  Share of cultures, Fertile: 9 ± 8.7
  Share of cultures, Live: 85 ± 10.0
[6]; day 50, HEM strain
  Share of cultures, Fertile: 9 ± 8.7
  Share of cultures, Live: 36 ± 12.8
[6]; day 54, HEM strain
  Share of cultures, Fertile: 0 + 0.9
  Share of cultures, Live: 36 ± 12.8
[6]; day 60, HEM strain
  Share of cultures, Fertile: 0 + 0.9
  Share of cultures, Live: 29 ± 12.1
[6]; day 66, HEM strain
  Share of cultures, Fertile: 0 + 0.9
  Share of cultures, Live: 29 ± 12.1
[6]; day 69, HEM strain
  Share of cultures, Fertile: 0 + 0.9
  Share of cultures, Live: 21 ± 10.9
[6]; day 73, HEM strain
  Share of cultures, Fertile: 0 + 0.9
  Share of cultures, Live: 7 ± 6.9
[6]; day 76, HEM strain
  Share of cultures, Fertile: 0 + 0.9
  Share of cultures, Live: 7 ± 6.9
[6]; day 84, HEM strain
  Share of cultures, Fertile: 0 + 0.9
  Share of cultures, Live: 7 ± 6.9
[6]; day 87, HEM strain
  Share of cultures, Fertile: 0 + 0.9
  Share of cultures, Live: 7 ± 6.9
[6]; day 100, HEM strain
  Share of cultures, Fertile: 0 + 0.9
  Share of cultures, Live: 0 + 0.8
